Measurements reported in PubChem BioAssay (NCI).
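Following 48 hours of exposure in 96-well plates, responses at five concentrations were used to interpolate endpoints linearly. TGI marks complete inhibition of growth.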

Columns and labels:
Assay in all cases: DTP human tumour cell line panel, 48 h
OVCAR-8 ovarian = system: OVCAR-8 ovarian
K-562 leukemia = system: K-562 leukemia
SK-MEL-28 melanoma = system: SK-MEL-28 melanoma
KM12 colon = system: KM12 colon
IGROV1 ovarian = system: IGROV1 ovarian
DMS 114 small cell lung = system: DMS 114 small cell lung
RXF 393 renal = system: RXF 393 renal
NCI-H460 lung = system: NCI-H460 lung
SNB-19 CNS = system: SNB-19 CNS
NCI-H23 lung = system: NCI-H23 lung
SNB-78 CNS = system: SNB-78 CNS
EKVX NSCLC = system: EKVX NSCLC
HT29 colon = system: HT29 colon
M19-MEL melanoma = system: M19-MEL melanoma
A498 renal = system: A498 renal
HOP-62 NSCLC = system: HOP-62 NSCLC
U251 CNS = system: U251 CNS
HCT-116 colon = system: HCT-116 colon
CCRF-CEM leukemia = system: CCRF-CEM leukemia
HL-60(TB) leukemia = system: HL-60(TB) leukemia
NCI-H522 lung = system: NCI-H522 lung
A549 NSCLC = system: A549 NSCLC
MOLT-4 leukemia = system: MOLT-4 leukemia
UO-31 renal = system: UO-31 renal
OVCAR-5 ovarian = system: OVCAR-5 ovarian
SR leukemia = system: SR leukemia
NCI-H226 lung = system: NCI-H226 lung
HOP-92 NSCLC = system: HOP-92 NSCLC
RXF-631 renal = system: RXF-631 renal
SF-295 CNS = system: SF-295 CNS
ACHN renal = system: ACHN renal
TK-10 renal = system: TK-10 renal
M14 melanoma = system: M14 melanoma
UACC-257 melanoma = system: UACC-257 melanoma
SK-OV-3 ovarian = system: SK-OV-3 ovarian
RPMI-8226 leukemia = system: RPMI-8226 leukemia
OVCAR-3 ovarian = system: OVCAR-3 ovarian
COLO 205 colon = system: COLO 205 colon
SN12C renal = system: SN12C renal
HCC-2998 colon = system: HCC-2998 colon
CAKI-1 renal = system: CAKI-1 renal
DMS 273 small cell lung = system: DMS 273 small cell lung
DLD-1 colon = system: DLD-1 colon
OVCAR-4 ovarian = system: OVCAR-4 ovarian
SW-620 colon = system: SW-620 colon
SK-MEL-2 melanoma = system: SK-MEL-2 melanoma
MALME-3M melanoma = system: MALME-3M melanoma
SF-539 CNS = system: SF-539 CNS
SF-268 CNS = system: SF-268 CNS
HCT-15 colon = system: HCT-15 colon
SNB-75 CNS = system: SNB-75 CNS
SK-MEL-5 melanoma = system: SK-MEL-5 melanoma
786-0 renal = system: 786-0 renal
LXFL 529 NSCLC = system: LXFL 529 NSCLC
KM20L2 colon = system: KM20L2 colon
XF 498 CNS = system: XF 498 CNS
UACC-62 melanoma = system: UACC-62 melanoma
LOX IMVI melanoma = system: LOX IMVI melanoma
HOP-18 NSCLC = system: HOP-18 NSCLC

O=C(/C=C/c1ccc(O)cc1)OC[C@@H](O)COC1OC(CO)C(O)C(O)C1O (stereo partly drawn)
TGI (OVCAR-8 ovarian): > 100 µM | TGI (K-562 leukemia): > 100 µM | TGI (SK-MEL-28 melanoma): > 100 µM | TGI (KM12 colon): > 100 µM | TGI (IGROV1 ovarian): > 100 µM | TGI (DMS 114 small cell lung): > 100 µM | TGI (RXF 393 renal): > 100 µM | TGI (NCI-H460 lung): > 100 µM | TGI (SNB-19 CNS): > 100 µM | TGI (NCI-H23 lung): > 100 µM | TGI (SNB-78 CNS): > 100 µM | TGI (EKVX NSCLC): > 100 µM | TGI (HT29 colon): > 100 µM | TGI (M19-MEL melanoma): > 100 µM | TGI (A498 renal): > 100 µM | TGI (HOP-62 NSCLC): > 100 µM | TGI (U251 CNS): > 100 µM | TGI (HCT-116 colon): > 100 µM | TGI (CCRF-CEM leukemia): > 100 µM | TGI (HL-60(TB) leukemia): > 100 µM | TGI (NCI-H522 lung): > 100 µM | TGI (A549 NSCLC): > 100 µM | TGI (MOLT-4 leukemia): > 100 µM | TGI (UO-31 renal): > 100 µM | TGI (OVCAR-5 ovarian): > 100 µM | TGI (SR leukemia): > 100 µM | TGI (NCI-H226 lung): > 100 µM | TGI (HOP-92 NSCLC): > 100 µM | TGI (RXF-631 renal): > 100 µM | TGI (SF-295 CNS): > 100 µM | TGI (ACHN renal): > 100 µM | TGI (TK-10 renal): > 100 µM | TGI (M14 melanoma): > 100 µM | TGI (UACC-257 melanoma): > 100 µM | TGI (SK-OV-3 ovarian): > 100 µM

C[C@]12C=CC(=O)C=C1CC[C@H]1[C@@H]3C[C@@H](O)[C@](O)(C(=O)CO)[C@@]3(C)C[C@H](O)[C@@]12F
TGI (OVCAR-8 ovarian): > 100 µM | TGI (RPMI-8226 leukemia): > 100 µM | TGI (K-562 leukemia): > 100 µM | TGI (OVCAR-3 ovarian): > 100 µM | TGI (SK-MEL-28 melanoma): > 100 µM | TGI (KM12 colon): > 100 µM | TGI (IGROV1 ovarian): > 100 µM | TGI (COLO 205 colon): > 100 µM | TGI (DMS 114 small cell lung): > 100 µM | TGI (RXF 393 renal): > 100 µM | TGI (NCI-H460 lung): > 100 µM | TGI (SNB-19 CNS): > 100 µM | TGI (NCI-H23 lung): > 100 µM | TGI (SNB-78 CNS): > 100 µM | TGI (EKVX NSCLC): > 100 µM | TGI (SN12C renal): > 100 µM | TGI (HT29 colon): > 100 µM | TGI (M19-MEL melanoma): > 100 µM | TGI (HCC-2998 colon): > 100 µM | TGI (CAKI-1 renal): > 100 µM | TGI (DMS 273 small cell lung): > 100 µM | TGI (A498 renal): > 100 µM | TGI (HOP-62 NSCLC): > 100 µM | TGI (U251 CNS): > 100 µM | TGI (HCT-116 colon): > 100 µM | TGI (DLD-1 colon): > 100 µM | TGI (OVCAR-4 ovarian): > 100 µM | TGI (CCRF-CEM leukemia): > 100 µM | TGI (HL-60(TB) leukemia): > 100 µM | TGI (SW-620 colon): > 100 µM | TGI (NCI-H522 lung): > 100 µM | TGI (A549 NSCLC): > 100 µM | TGI (SK-MEL-2 melanoma): > 100 µM | TGI (MALME-3M melanoma): > 100 µM | TGI (SF-539 CNS): > 100 µM | TGI (MOLT-4 leukemia): > 100 µM | TGI (UO-31 renal): > 100 µM | TGI (SF-268 CNS): > 100 µM | TGI (HCT-15 colon): > 100 µM | TGI (SNB-75 CNS): > 100 µM | TGI (SK-MEL-5 melanoma): > 100 µM | TGI (786-0 renal): > 100 µM | TGI (LXFL 529 NSCLC): > 100 µM | TGI (OVCAR-5 ovarian): > 100 µM | TGI (KM20L2 colon): > 100 µM | TGI (SR leukemia): > 100 µM | TGI (XF 498 CNS): > 100 µM | TGI (UACC-62 melanoma): > 100 µM | TGI (NCI-H226 lung): > 100 µM | TGI (LOX IMVI melanoma): > 100 µM | TGI (HOP-92 NSCLC): > 100 µM | TGI (RXF-631 renal): > 100 µM | TGI (SF-295 CNS): > 100 µM | TGI (ACHN renal): > 100 µM | TGI (TK-10 renal): > 100 µM | TGI (M14 melanoma): > 100 µM | TGI (UACC-257 melanoma): > 100 µM | TGI (SK-OV-3 ovarian): > 100 µM

C=C(C=O)[C@@H]1C2OC(=O)C(=C)[C@@H]2CC(O)[C@@]1(C)CC (stereo partly drawn)
TGI (OVCAR-8 ovarian): 20.4 µM | TGI (RPMI-8226 leukemia): 10 µM | TGI (K-562 leukemia): 22.6 µM | TGI (OVCAR-3 ovarian): 21.3 µM | TGI (SK-MEL-28 melanoma): 12.5 µM | TGI (KM12 colon): 37.2 µM | TGI (IGROV1 ovarian): > 28.7 µM | TGI (COLO 205 colon): 11.7 µM | TGI (DMS 114 small cell lung): 36.8 µM | TGI (RXF 393 renal): 10.3 µM | TGI (NCI-H460 lung): 51.4 µM | TGI (SNB-19 CNS): > 89.7 µM | TGI (NCI-H23 lung): 13.3 µM | TGI (SNB-78 CNS): 24.9 µM | TGI (EKVX NSCLC): 51.1 µM | TGI (SN12C renal): 32.6 µM | TGI (HT29 colon): 21.5 µM | TGI (M19-MEL melanoma): 14.3 µM | TGI (HCC-2998 colon): 31.1 µM | TGI (CAKI-1 renal): 24 µM | TGI (A498 renal): 39.5 µM | TGI (HOP-62 NSCLC): > 100 µM | TGI (U251 CNS): 32.4 µM | TGI (HCT-116 colon): 14.5 µM | TGI (DLD-1 colon): 9.7 µM | TGI (OVCAR-4 ovarian): > 30.2 µM | TGI (CCRF-CEM leukemia): 6.44 µM | TGI (HL-60(TB) leukemia): 5.92 µM | TGI (SW-620 colon): 11.8 µM | TGI (NCI-H522 lung): 4.52 µM | TGI (A549 NSCLC): > 100 µM | TGI (SK-MEL-2 melanoma): 21.7 µM | TGI (MALME-3M melanoma): 18.7 µM | TGI (SF-539 CNS): 23.6 µM | TGI (MOLT-4 leukemia): 9.08 µM | TGI (UO-31 renal): 45.8 µM | TGI (SF-268 CNS): 71.4 µM | TGI (HCT-15 colon): 24.7 µM | TGI (SNB-75 CNS): > 100 µM | TGI (SK-MEL-5 melanoma): 19.8 µM | TGI (786-0 renal): 10.2 µM | TGI (LXFL 529 NSCLC): 8.23 µM | TGI (OVCAR-5 ovarian): 32 µM | TGI (KM20L2 colon): 24.9 µM | TGI (SR leukemia): 12.3 µM | TGI (UACC-62 melanoma): 13.9 µM | TGI (NCI-H226 lung): 59.8 µM | TGI (LOX IMVI melanoma): 34.7 µM | TGI (HOP-92 NSCLC): 4.19 µM | TGI (RXF-631 renal): 37.7 µM | TGI (SF-295 CNS): 57.2 µM | TGI (ACHN renal): 27.1 µM | TGI (TK-10 renal): 29.9 µM | TGI (M14 melanoma): 19.1 µM | TGI (UACC-257 melanoma): 26.9 µM | TGI (HOP-18 NSCLC): 41.3 µM | TGI (SK-OV-3 ovarian): 99.9 µM

Cc1ccc(NC(=O)c2c(C)nc(=O)n3c2N(/N=C/c2ccc(Cl)cc2)CC3)cc1
TGI (K-562 leukemia): > 100 µM | TGI (SK-MEL-28 melanoma): 31.2 µM | TGI (IGROV1 ovarian): 36.2 µM | TGI (COLO 205 colon): 54.8 µM | TGI (DMS 114 small cell lung): 55.1 µM | TGI (NCI-H23 lung): 29.2 µM | TGI (SNB-78 CNS): 40.5 µM | TGI (SN12C renal): 30.6 µM | TGI (M19-MEL melanoma): 37 µM | TGI (HCC-2998 colon): 32.3 µM | TGI (CAKI-1 renal): 32.1 µM | TGI (DMS 273 small cell lung): 43.9 µM | TGI (A498 renal): 33.1 µM | TGI (HOP-62 NSCLC): 33.1 µM | TGI (HCT-116 colon): 26.4 µM | TGI (DLD-1 colon): 30.7 µM | TGI (OVCAR-4 ovarian): 32 µM | TGI (CCRF-CEM leukemia): > 100 µM | TGI (HL-60(TB) leukemia): 48.7 µM | TGI (NCI-H522 lung): 24 µM | TGI (SK-MEL-2 melanoma): 34.7 µM | TGI (MALME-3M melanoma): 40.1 µM | TGI (SF-539 CNS): 25 µM | TGI (MOLT-4 leukemia): 82 µM | TGI (UO-31 renal): 24 µM | TGI (SF-268 CNS): 29.2 µM | TGI (SNB-75 CNS): 34.1 µM | TGI (786-0 renal): 33.8 µM | TGI (LXFL 529 NSCLC): 31.6 µM | TGI (SR leukemia): > 100 µM | TGI (XF 498 CNS): 34.1 µM | TGI (UACC-62 melanoma): 28.2 µM | TGI (NCI-H226 lung): 33.3 µM | TGI (HOP-92 NSCLC): 36.6 µM | TGI (RXF-631 renal): 30.6 µM | TGI (ACHN renal): 33.8 µM | TGI (M14 melanoma): 31.5 µM | TGI (SK-OV-3 ovarian): 39.7 µM
